# Legend:
# Format in all cases: in vivo, human
# [1] = system: Japanese and Caucasian healthy subjects; assay: Total cholesterol determination, Study 3 (healthy volunteers); settings: for [Total cholesterol] % Mean % variation vs baseline 10 days: 200 mg q.d.; for [Total cholesterol] levels: Study 3
# Procedure: Randomized, double-blind, placebo-controlled study for the assessment of safety, tolerability, pharmacokinetics, and pharmacodynamics, of multiple oral doses of Compound 1 (dosed as a [Compound 1:HCl:3H2O]) in Japanese and Caucasian healthy subjects.
# Randomized, double-blind, placebo-controlled, single center, sequential design study.
# Compound 1 (dosed as a [Compound 1:HCl:3H2O]) is administered for 10 days as oral film-coated tablet (25 and 100 mg and matching placebos). Placebo are provided as a matching tablet.
# The study drug is ingested with 240 mL water after a standardized breakfast on Days 2-9. On PK days (Day 1 and Day 10) the study drug is administered in a fasted state (subjects will receive lunch 4 h after dosing on Day 1 and Day 10).
# 10 Japanese subjects (6 active, 4 placebo) and 10 Caucasian subjects (6 active, 4 placebo) will receive once daily an oral dose of 200 mg Compound 1 (dosed as a [Compound 1:HCl:3H2O]) or matching placebo as two tablets of 100 mg or matching placebo for 10 days. For practical reasons, these subjects may be split over separate groups, each group consisting of an equal number of Japanese and Caucasian Compound 1 (dosed as a [Compound 1:HCl:3H2O]) treated subjects and Japanese and Caucasian placebo subjects.
# This method is based on the determination of Δ^4 cholestenone after enzymatic cleavage of the cholesterol ester by cholesterol esterase, conversion of cholesterol by cholesterol oxidase, and subsequent measurement by the Trinder reaction of the hydrogen peroxide formed (Allain et al., 1974).
# Cholesterol esters are cleaved by the action of cholesterol esterase to yield free cholesterol and fatty acids. Cholesterol oxidase then catalyzes the oxidation of cholesterol to cholest-4-en-3-one and hydrogen peroxide. In the presence of peroxidase, the hydrogen peroxide formed effects the oxidative coupling of phenol and 4-aminophenazone to form a red quinone-imine dye. The color intensity of the dye formed is directly proportional to the cholesterol concentration. It is determined by measuring the increase in absorbance.
# Human serum and plasma samples cholesterol determination was done on a Roche/Hitachi Cobas c 701/702 system which automatically calculate the analyte concentration of each sample.
# RA patients [2] = assay: LDL determination, Study 4 (RA patients, 4 weeks, add-on to MTX); settings: for [LDL] levels: Study 4
# Source text: Randomized, double-blind, placebo-controlled, multicenter, phase II study of Compound 1 (dosed as a [Compound 1:HCl:3H2O]) to compare four dose regimens versus placebo, in combination with methotrexate, administered for 4 weeks in the treatment of subjects with active rheumatoid arthritis who have an inadequate response to methotrexate alone.
# (§1) Randomized double-blind, placebo-controlled add on study in subjects with active RA who have an inadequate response to MTX monotherapy, in combination with methotrexate, administered for 4 weeks in the treatment of subjects with active rheumatoid arthritis who have an inadequate response to methotrexate alone.
# 90 subjects randomized to one of 4 dose regimens of Compound 1 (dosed as a [Compound 1:HCl:3H2O]) or placebo, on top of their stable dose of MTX. Thus, each of the 4 different doses of Compound 1 (dosed as a [Compound 1:HCl:3H2O]) and placebo groups has 18 subjects.
# (§2) Compound 1 (dosed as a [Compound 1:HCl:3H2O]) capsules administered orally in 30 mg, 75 mg, 150 mg, or 300 mg doses per day for 4 weeks.
# The determination of [LDL]-cholesterol is made using an automated method taking advantage of the selective micellary solubilization of [LDL]-cholesterol by a nonionic detergent and the interaction of a sugar compound and lipoproteins (VLDL and chylomicrons).
# When a detergent is included in the enzymatic method for cholesterol determination (cholesterol esterase, cholesterol oxidase coupling reaction), the relative reactivities of cholesterol in the lipoprotein fractions increase in this order: [HDL]<chylomicrons <VLDL <[LDL]. In the presence of Mg^2+, a sugar compound markedly reduces the enzymatic reaction of the cholesterol measurement in VLDL and chylomicrons. The combination of a sugar compound with detergent enables the selective determination of [LDL]-cholesterol in serum. (Friedewald et al., 1972; Rifai et al., 1992)
# Homogeneous enzymatic colorimetric assay.
# In the presence of peroxidase, the hydrogen peroxide generated reacts with 4-aminoantipyrine and Sodium N-(2-hydroxy-3-sulfopropyl)-3,5-dimethoxyaniline (HSDA) to form a purple-blue dye.
# The color intensity of this dye is directly proportional to the cholesterol concentration and is measured photometrically.
# Human serum and plasma samples [LDL] determination was done on a Roche/Hitachi Cobas c 701/702 system which automatically calculate the analyte concentration of each sample. Samples containing precipitates are centrifuged before performing the assay.
# RA patients [3] = assay: Plasma ApoC-III concentration (ELISA), Study 4; settings: for ApoC-III level, 4 weeks CFB: 4 weeks change from baseline
# Procedure: as §1, §2
# Plasma ApoC-II and ApoC-III concentrations are determined using commercial available ELISA kits from Abnova (9th Floor, No. 108, Jhouzih St., Neihu District. Taipei City, 114, Taiwan) according to manufacturer's instruction. apoC2: catalogue number KA0464, lot number used: 08871403. apoC3: catalogue number KA0465, lot number used: 02961525.
structure (smiles),measurement,setting,value
"O=C(Nc1nc2cccc(-c3ccc(CN4CCS(=O)(=O)CC4)cc3)n2n1)C1CC1 [Compound 1, cyclopropanecarboxylic acid {5-[4-(1,1-dioxo-thiomorpholin-4-ylmethyl)-phenyl]-[1,2,4]triazolo[1,5-a]pyridin-2yl}-amide]",[Total cholesterol] % Mean % variation vs baseline 10 days,[1]; Caucasian,−2.6%
same,[Total cholesterol] % Mean % variation vs baseline 10 days,[1]; Japanese,−0.4%
same,[Total cholesterol] levels,"[1]; Caucasian 200 mg q.d. for 10 days, day 17",4.57 mmol/L
same,[Total cholesterol] levels,"[1]; Caucasian 200 mg q.d., day 0",4.77 mmol/L
same,[Total cholesterol] levels,"[1]; Caucasian 200 mg q.d., day 5",4.5 mmol/L
same,[Total cholesterol] levels,"[1]; Caucasian 200 mg q.d., day 10",4.53 mmol/L
same,[Total cholesterol] levels,"[1]; Japanese 200 mg q.d. for 10 days, day 17",4.52 mmol/L
same,[Total cholesterol] levels,"[1]; Japanese 200 mg q.d., day 0",4.47 mmol/L
same,[Total cholesterol] levels,"[1]; Japanese 200 mg q.d., day 5",4.18 mmol/L
same,[Total cholesterol] levels,"[1]; Japanese 200 mg q.d., day 10",4.45 mmol/L
same,[LDL] % Mean % variation vs baseline after 4 weeks,RA patients [2]; 30 mg qd,7%
same,[LDL] % Mean % variation vs baseline after 4 weeks,RA patients [2]; 75 mg qd,7%
same,[LDL] % Mean % variation vs baseline after 4 weeks,RA patients [2]; 150 mg qd,1%
same,[LDL] % Mean % variation vs baseline after 4 weeks,RA patients [2]; 300 mg qd,13%
same,[LDL] levels,"RA patients [2]; 30 mg q.d., baseline",3.34 mmol/L
same,[LDL] levels,"RA patients [2]; 30 mg q.d., week 1",3.40 mmol/L
same,[LDL] levels,"RA patients [2]; 30 mg q.d., week 2",3.35 mmol/L
same,[LDL] levels,"RA patients [2]; 30 mg q.d., week 3",3.41 mmol/L
same,[LDL] levels,"RA patients [2]; 30 mg q.d., week 4",3.60 mmol/L
same,[LDL] levels,"RA patients [2]; 75 mg q.d., baseline",3.22 mmol/L
same,[LDL] levels,"RA patients [2]; 75 mg q.d., week 1",3.25 mmol/L
same,[LDL] levels,"RA patients [2]; 75 mg q.d., week 2",3.17 mmol/L
same,[LDL] levels,"RA patients [2]; 75 mg q.d., week 3",3.14 mmol/L
same,[LDL] levels,"RA patients [2]; 75 mg q.d., week 4",3.36 mmol/L
same,[LDL] levels,"RA patients [2]; 150 mg q.d., baseline",3.01 mmol/L
same,[LDL] levels,"RA patients [2]; 150 mg q.d., week 1",3.18 mmol/L
same,[LDL] levels,"RA patients [2]; 150 mg q.d., week 2",2.95 mmol/L
same,[LDL] levels,"RA patients [2]; 150 mg q.d., week 3",2.96 mmol/L
same,[LDL] levels,"RA patients [2]; 150 mg q.d., week 4",3.06 mmol/L
same,[LDL] levels,"RA patients [2]; 300 mg q.d., baseline",2.82 mmol/L
same,[LDL] levels,"RA patients [2]; 300 mg q.d., week 1",3.19 mmol/L
same,[LDL] levels,"RA patients [2]; 300 mg q.d., week 2",3.11 mmol/L
same,[LDL] levels,"RA patients [2]; 300 mg q.d., week 3",3.18 mmol/L
same,[LDL] levels,"RA patients [2]; 300 mg q.d., week 4",3.18 mmol/L
same,"ApoC-III level, 4 weeks CFB",RA patients [3]; 30 mg q.d.,4.6%
same,"ApoC-III level, week 4",RA patients [3]; 30 mg q.d.,78.6 ng/mL
same,"ApoC-III level, 4 weeks CFB",RA patients [3]; 75 mg q.d.,17.6%
same,"ApoC-III level, week 4",RA patients [3]; 75 mg q.d.,79.6 ng/mL
same,"ApoC-III level, 4 weeks CFB",RA patients [3]; 150 mg q.d.,9.6%
same,"ApoC-III level, week 4",RA patients [3]; 150 mg q.d.,82.7 ng/mL
same,"ApoC-III level, 4 weeks CFB",RA patients [3]; 300 mg q.d.,27.9%
same,"ApoC-III level, week 4",RA patients [3]; 300 mg q.d.,88.2 ng/mL

# Source: patent US10376520B2, “Methods for the treatment of cardiovascular disorders” (Galapagos NV, priority 2015, dated 2019)
